From patent US8481263B2, “Bead-ligand-nascent protein complexes” (Ambergen, priority 2007, dated 2013)

Target: T1, PKCα (Homo sapiens, UniProt P17252)
T1 construct: isolate and photo-release endogenous PKCa from the undiluted detergent fractionated HeLa cell extracts; endogenous in cells; host or cells: HeLa cells (ATCC)
Assay: PKCα sub-cellular translocation measured by kinase activity after photocleavable antibody isolation
Assay type: cell-based
Settings: cultured HeLa cells stimulated with 200 nM PMA for 5 min; detergent fractionated; kinase activity of PC-antibody isolated PKCα; n=4
Experimental: Cultured HeLa cells (ATCC; Manassas, Va.) were stimulated for 5 min with 200 nM Phorbol-12-Myristate-13-Acetate (PMA; EMD Biosciences, Inc., San Diego, Calif.) and subsequently detergent fractionated into sub-cellular compartments according to reported procedures [Ramsby et al. (1994) Electrophoresis 15, 265-277; Ramsby & Makowski. (1999) Methods Mol Biol 112, 53-66; Chiang et al. (2000) J Biochem Biophys Methods 46, 53-68]. PMA is a potent activator of PKCα and is well known to cause translocation of the kinase from the cytosolic to the membrane sub-cellular compartments [Ross & Joyner. (1997) Endothelium 5, 321-332; Bazan & Rapoport. (1996) J Pharmacol Toxicol Methods 36, 87-95; Yazlovitskaya & Melnykovych. (1995) Cancer Lett 88, 179-183].
A photocleavable antibody conjugated solid affinity matrix was prepared and used to isolate and photo-release the antigen into solution essentially as described in Example 2 except that in this case, a photocleavable anti-IgG secondary antibody was used to immobilize the unlabeled primary antibody onto the solid affinity matrix. This antibody affinity matrix was used to isolate and photo-release endogenous PKCa from the undiluted detergent fractionated HeLa cell extracts. […]

Which results are given for `CCCCCCCCCCCCCC(=O)O[C@@H]1[C@@H](C)[C@@]2(O)[C@@H](C=C(CO)C[C@]3(O)C(=O)C(C)=C[C@@H]23)[C@@H]2C(C)(C)[C@]12OC(C)=O` [PMA, Phorbol-12-Myristate-13-Acetate]?
PKCα distribution, cytosol: 16±4%; PKCα distribution, membrane: 84±3%
